From patent US7919487B2, “Heteroaryl compounds” (Synta Pharmaceuticals Corporation, priority 2004, dated 2011)

Tested on: IL-12 production in human PBMC or THP-1 cells
Experiment: Human in vitro assay: inhibition of IL-12 production in human PBMC or THP-1 cells (ELISA)
Type: cell-based
Settings: THP-1, human PBMC or THP-1 cells, IFNγ plus LPS or SAC stimulation, representative in vitro data
Description: The biological activities of the compounds of the invention can be evaluated by a number of cell-based assays. One of such assays can be conducted using cells from human peripheral blood mononuclear cells (PBMC) or human monocytic cell line (THP-1). The cells are stimulated with a combination of human interferon-γ (IFNγ) and lipopolysaccharide or a combination of IFNγ and Staphylococcus aureus Cowan I in the presence of a test compound. The level of inhibition of IL-12 production can be measured by determining the amount of p70 by using a sandwich ELISA assay with anti-human IL-12 antibodies. IC50 of the test compound can then be determined. Specifically, PBMC or THP-1 cells are incubated with the test compound. Cell viability was assessed using the bioreduction of MTS [3-(4,5-dimethylthiazol-2-yl)-5-(3-carboxymethoxyphenyl)-2-(4-sulfophenyl)-2H-tetrazolium] (Promega, Madison, Wis.).
Reagents. Staphylococcus aureus Cowan I (SAC) was obtained from Calbiochem (La Jolla, Calif.), and lipopolysaccharide (LPS, Serratia marscencens) was obtained from Sigma (St Louis, Mo.). Human and mouse recombinant IFNγ were purchased from Boehringer Mannheim (Mannheim, Germany) and Pharmingen (San Diego, Calif.), respectively.
Human In Vitro Assay. Human PBMC were isolated by centrifugation using Ficoll-Paque (Pharmacia Biotech, Uppsala, Sweden) and prepared in RPMI medium supplemented with 10% fetal calf serum (FCS), 100 U/mL penicillin, and 100 μg/mL streptomycin. PBMC were plated in wells of a 96-well plate at a concentration of 5×10^5 cells/well, and primed by adding IFNγ (30 U/mL) for 22 h and stimulated by adding LPS (1 μg/mL), or by adding IFNγ (100 U/mL) and then stimulated by adding SAC (0.01%). A test pyrimidine compound was dissolved in DMSO, and added to wells of the 96-well plate. The final DMSO concentration was adjusted to 0.25% in all cultures, including the compound-free control. Human THP-1 cells were plated in wells, primed by adding IFNγ (100 U/mL) for 22 h and stimulated by adding SAC (0.025%) in the presence of different concentrations of the pyrimidine compound. Cell-free supernatants were taken 18 h later for measurement of cytokines. Cell viability was assessed using the bioreduction of MTS. Cell survival was estimated by determining the ratio of the absorbance in compound-treated groups versus compound-free control.
The supernatant was assayed for the amount of IL-12p40, IL-12p70, or IL-10 by using a sandwich ELISA with anti-human antibodies, i.e., a Human IL-12 p40 ELISA kit from R&D Systems (Berkeley, Calif.), and a Human IL-12 p70 or IL-10 ELISA kit from Endogen (Cambridge, Mass.). Assays were based on the manufacturer's instructions.
The biological activities of compounds were tested on human PBMC or THP-1 cells.

COCCN(C)c1cc(N/N=C/c2cccc(C)c2)nc(OCCN2CCOCC2)n1 [Compound 31, (2-Methoxy-ethyl)-methyl-[6-[N′-(3-methyl-benzylidene)-hydrazino]-2-(2-morpholin-4-yl-ethoxy)-pyrimidin-4-yl]-amine]
IC50: 0.674 µM

Cc1cccc(/C=N/Nc2cc(N)nc(N/N=C/c3cccc(C)c3)n2)c1 [Compound 19, 2,6-Bis-[N′-(3-methyl-benzylidene)-hydrazino]-pyrimidin-4-ylamine]
IC50: 0.119 µM

Cc1[nH]c2ccc(NC(=O)c3cccc(-c4ccsc4)n3)cc2c1C [Compound 105, 6-Thiophen-3-yl-pyridine-2-carboxylic acid(2,3-dimethyl-1H-indol-5-yl)-amide]
IC50: > 1 µM

C(=N\Nc1nc(OCCc2ccccn2)nc(N2CCC3(CC2)OCCO3)n1)/c1c[nH]c2ccccc12 [Compound 8, N-[4-(1,4-Dioxa-8-aza-spiro[4.5]dec-8-yl)-6-(2-pyridin-2-yl-ethoxy)-[1,3,5]triazin-2-yl]-N′-(1H-indol-3-ylmethylene)-hydrazine]
IC50: 0.5 µM

Cc1[nH]c2ccc(NC(=O)c3cccc(-c4cccnc4)n3)cc2c1C [Compound 106, [2,3′]Bipyridinyl-6-carboxylic acid(2,3-dimethyl-1H-indol-5-yl)-amide]
IC50: > 1 µM

Cc1[nH]c2ccc(NC(=O)c3cccc(-c4ccnc(F)c4)n3)cc2c1C [Compound 107, 2′-Fluoro-[2,4′]bipyridinyl-6-carboxylic acid(2,3-dimethyl-1H-indol-5-yl)-amide]
IC50: 0.193 µM

COCc1cc(N/N=C/c2cccc(C)c2)nc(-c2ccncc2)n1 [Compound 142, (E)-4-(methoxymethyl)-6-(2-(3-methylbenzylidene)hydrazinyl)-2-(pyridin-4-yl)pyrimidine]
IC50: 0.08 µM
